# From US20140123342A1, “Regulation of Stomatal Apertures by Apyrases and Extracellular Nucleotides” (BOARD OF REGENTS, THE UNIVERSITY OF TEXAS SYSTEM, priority 2011, published 2014)
# What was measured:
# [1] = test system: guard cells of x-luc1 and x-luc9 ecto-luciferase lines; test: Ecto-luciferase luminescence imaging of extracellular ATP in epidermal peels; format: cell-based, Arabidopsis thaliana; settings: 10 μM
# Source text: Ecto-luciferase Construct and Plant Transformation: The nucleotide sequence for the 24 amino acid, cleavable signal peptide from the Brassica pollen coat protein, S-locus cysteine-rich protein (SCR13; AF195626) was used to target luciferase for secretion (Schopfer et al., 1999). The signal peptide was incorporated at the N-terminus of the luciferase gene by PCR and the SCR13 signal peptide modified luciferase PCR product was then ligated into the binary vector pLBJ21. This construct was then transformed into Agrobacterium tumefaciens strain GV3101 (pMP90) and then transformed into Arabidopsis plants (Col-0) using the floral dipping method (Clough and Bent, 1998). Transgenic plants were selected by planting on solidified Murashige and Skoog (MS) medium (4.3 g/L Murashige and Skoog salts (Sigma), 0.5% (w/v) MES, and 1.0% (w/v) agar, raised to pH 5.7 with 5 M KOH) containing 50 μg/mL kanamycin. Segregation of T3 generation on kanamycin plates was analysed in order to obtain homozygous lines. Plants showing kanamycin resistance were checked for luciferase activity by growing transgenic plants in MS medium for 10 days and then transferring the whole seedlings into test tubes. Luminescence measurements were performed by placing the test tubes in the light-tight housing of the luminometer reader (Dynatech). Experimental solutions with luciferin substrate with and without 1 mM ATP were injected by an automatic injector, and after 3 seconds counting started at 0.2 second time intervals.
# Imaging of Luminescence in Ecto-luciferase Plants: Ecto-luciferase seeds were surface-sterilized, stratified in the dark in 4° C. for at least three days and then planted directly on a cellophane membrane placed upon solidified MS with 1.0% (w/v) agar. Planted plates were placed upright in a culture chamber and grown at 23° C. under 24-h fluorescent light for 7 days. Plates were then reoriented so that the solidified MS medium was at the bottom of the plate and the seedling was able to grow up into the empty space of the petri dish. Seedlings were then allowed to mature for up to 4 weeks under identical temperature and light settings. For “dark” studies petri dishes of 3-4 week old plants were placed in a dark chamber for 24 hours prior to use in the studies.
# Mature basal leaves were excised from x-luc1 and x-luc9 plants 3-4 weeks old. Peels were taken and then immediately floated with the abaxial side up in 40 μL, of Arabidopsis leaf buffer on a microscope slide and the chemical being tested in either light or dark conditions depending on the experimental setup. The placing of the peels within their respective solution was considered time zero. Peels were treated for a minimum of 5 minutes before luciferin and flash buffer were added to the solution. […] Luminescence was integrated over 120 seconds, High Gain, Read Out set to slow, using 4×4 pixel binning with Cosmic Suppression on, Background Correction off, and Flatfield Correction off with the filter set to Photo.
# All luminescence analysis was conducted using the indiGO Analysis Software (version 2.0.0.26). All images consisted of a photographic image in grayscale with an overlaid luminescence image in pseudo color. […]
# [2] = test system: stomata of nia1nia2 mutant leaves; test: Stomatal closing studies with whole leaves of nia1nia2 mutant; format: cell-based, Arabidopsis thaliana; settings: 10 μM
# Description: Stomatal Aperture Studies: Arabidopsis thaliana ecotypes Columbia (Col-0) and Wassilewskija (WS) were used as wild types in this study. Col-0, nia1nia2, atrbohD/F, R2-4A and WS plants were all grown on autoclaved Metro-Mix 200 soil at 22° C. under continuous light. The mutant seeds nia1nia2 nia2-5; CS 2356; Col-0 background) were obtained from Dr. N. M. Crawford (University of California at San Diego) and the mutant seeds atrbohD/F (Col-0 background) were obtained from Dr. J. M. Kwak (University of Maryland). The RNAi mutant apyrase line (R2-4A) is in WS background, so WS ecotype was used as the control wild type for these studies. […]
# After treatment, photos of stomata were taken using a light microscope at 20×. Stomatal aperture width was measured using the image processing software ImageJ. Typically, photos were taken of 70 to 90 stomata per treatment of which only 50 stomata were measured for each treatment. For each treatment the ratio of closed stomata (width of 0) to open stomata was determined for all stomata imaged and this ratio was maintained in the 50 stomata that were measured for each treatment. Data shown uses apertures determined as width/length, however data in all studies also obtained as width only and generally width/length and width only data are in agreement with each other. […]
structure (smiles),measurement,setting,value
"CC1=CC(=O)CC(C)(C)[C@@]1(O)/C=C/C(C)=C\C(=O)O [ABA, abscisic acid]","ecto-luciferase luminescence in the location of stomata, average","[1]; 5 min, x-luc9 peels, open stomata, light",3.57 cps
same,ecto-luciferase luminescence after return to control levels,[1]; after 15 min of continuous exposure,about 0.80 cps
same,effect on stomatal aperture,[2],no effect on stomatal aperture
